Assay results: patent publication US6903130B1, “Pyrrolidineacetamide derivative alone or in combination for treatment of cns disorders” (UCB S.A., priority 1999, dated 2005)
Like-named read-outs stand apart in the source and are kept apart here.

Legend:
[1] = system: sound-sensitive mice; assay: Audiogenic seizure testing, protection against clonic convulsions; assay type: in vivo, mouse; details: for ED50: Mus musculus, ip, read-out: ED50, protection against audiogenic-induced clonic convulsions
Source text: The purpose of this study was to evaluate the effect of levetiracetam on the anticonvulsivant potency of valproate in sound sensitive mice, a genetic animal model with reflex seizures. In this model of generalized epilepsy, seizures can be evoked without electrical or chemical stimulation and seizure types, at least in part, are similar in their clinical phenomenology to seizures occurring in man (Löscher W. & Schmidt D., Epilepsy Res. (1988), 2, 145-181; Buchhalter J. R., Epilepsia (1993), 34, S31-S41).
The experimental design consisted of one group receiving vehicles, another group receiving levetiracetam alone at a dose of 5.5 mg/kg and the other groups receiving different doses of valproate alone or in combination with levetiracetam. Levetiracetam alone was also tested. […] Levetiracetam and sodium valproate were both dissolved in 0.9% saline solution, to give solutions of pH 6.4 and 6.2, respectively.
The proportion of mice protected against clonic convulsions was calculated and used as the end point for the anticonvulsant activity.
Methods used for calculation and statistical analysis are described hereafter: • A response to drug treatment was expressed as the proportion of animals protected against induced convulsions, or showing an impairment of the rotarod performance, at each individual dose. […] From these formulations, the dose of valproate, considered as expected value, that should be associated to a constant dose of levetiracetam in order to afford 50% of protection, may be calculated as: [formula] for the additive model [formula] for the independent model.
These calculated doses (Vm50 expected) may then be compared to the observed doses of valproate which, in combination with a constant dose of levetiracetam, induce an effect corresponding to 50% protection (Vm50 observed). […]

[2] = system: sound-sensitive mice; assay: Rotarod test in sound-sensitive mice
[3] = system: amygdala-kindled rats; assay: Protection against secondarily generalized motor seizures in amygdala-kindled rats; assay type: in vivo, rat; details: for ED50: Rattus norvegicus, ip, read-out: ED50, protection against secondarily generalized motor seizures
Source text: The purpose of this study was to evaluate the pharmacodynamic interaction between valproate levetiracetam in preventing secondarily generalized motor seizures in amygdala-kindled rats, a model that has repeatedly been proposed to reflect complex partial seizures with secondarily generalization in man ([…]. & al., Exp. Neurol. […] McNamara J. O., Ann. of Neurol. (1984), 16 (suppl.), […]-[…]). In this model, focal electrical kindling of amygdala in rats induces the development of electrical seizure activity ([…] amygdala and behavioral seizures, generally evolving through facial clonus, head nodding, forelimb clonus, rearing and fully kindled seizures with rearing and falling accompanied by generalized clonic seizures (Racine R. J., Electroencephalogr. Clin. Neurophysiol. (1972), 32, 281-294). […] Neurol. […] Two days later, drugs were tested. The behavioral effect of stimulation was graded according to the score of Racine (Racine R. J., Electroencephalogr. Clin. Neurophysiol. (1972), 32, 281-294).

[4] = levetiracetam 5.5 mg/kg i.p. alone, inferred from dose-response relation
[5] = compound alone, i.p., LOGIT-LOG DOSE regression

Structure (SMILES) | ED50 [1] | animals protected against audiogenic-induced clonic convulsions [1, 4] | ED50 (TD50), impairment of rotarod performance ([2]; compound alone, i.p., sound-sensitive mice) | animals showing an impairment of the rotarod performance [2, 4] | ED50 [3] | Calculated proportion of animals protected ([3]; levetiracetam 17 mg/kg alone) | Calculated proportion of animals protected ([3]; levetiracetam 54 mg/kg alone) | Calculated proportion of animals protected ([3]; levetiracetam 108 mg/kg alone) | ED50 [1, 5] | Impairment in the performance within the rotarod test ([2]; valproate 122 mg/kg + saline (treatment protecting 50% of the mice)) | ED50 [3, 5]
CC[C@@H](C(N)=O)N1CCCC1=O [Levetiracetam, (S)-(−)α-ethyl-2-oxo-1-pyrrolidineacetamide] | 10 mg/kg | 20% | 360.7 mg/kg | 4% | 307 mg/kg | 7% | 18% | 28.5% | – | – | –
CCCC(CCC)C(=O)[O-].[Na+] [Valproate, sodium valproate] | – | – | – | – | – | – | – | – | 122 mg/kg | 30% | 197 mg/kg
